From US11000033B2, “Ketone or oxime compound, and herbicide” (NISSAN CHEMICAL CORPORATION, priority 2014, dated 2021)

How the values were obtained:
Assay type in all cases: in vivo
Monochoria vaginalis = experiment: Test Example 1: herbicidal activity, application before weed generation in submerged conditions (symbol C); settings: application herbicide amount 320 g/ha
Summary of the method: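 Mixed weed seeds sown in alluvial soil under 4 cm of water, with rice seedlings at the 2.5-leaf stage added. Same-day treatment: emulsion diluted to a set herbicide amount onto the water. Three weeks at 25–30 °C, then graded on a six-step scale.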

Cyperus difformis = experiment: Test Example 3: herbicidal effect by foliage application, Wagner pot (symbol E); settings: application herbicide amount 320 g/ha
Summary of the method: (§1)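 Alluvial soil was flooded to a depth of 0.1–0.5 cm, seeded with the weeds and rice, and kept in a greenhouse at 25–30 °C. After 14 days of growth, the foliage received a small-sprayer application of emulsion diluted to the intended rate; injury was rated at 3 weeks.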

rice plant = experiment: Test Example 5: effect on crop by foliage application, plastic box (symbol b); settings: 320 g/ha, 3 weeks after application
Summary of the method: (§2)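 Crop seed is sown alongside grass and broadleaf weed species in spots in sterilized diluvial soil, then covered to a depth of about 1.5 cm. Plants grow in a greenhouse kept at 25° C. to 30° C.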

Stellaria media = experiment: Test Example 4: herbicidal effect by soil treatment (symbol P); settings: application herbicide amount 320 g/ha
Summary of the method: (§3)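 Seeds were sown in sterilized diluvial soil, covered with about 1.5 cm of soil, and the soil surface was sprayed with a water-diluted emulsion of the compound at a predetermined rate. Plants grew in a greenhouse at 25° C. to 30° C.; effects were scored visually 3 weeks after application.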

soybean [1] = experiment: Test Example 5: effect on crop by foliage application, plastic box (symbol d); settings: 320 g/ha, 3 weeks after application
Summary of the method: as §2

corn [2] = experiment: Test Example 4: effect on crop by soil treatment (symbol c); settings: application herbicide amount 320 g/ha
Summary of the method: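 Crop seed is sown in spots together with several weed species in a box of sterilized diluvial soil. It is covered by about 1.5 cm of soil and kept in a greenhouse held between 25° C. and 30° C.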

soybean [3] = experiment: Test Example 4: effect on crop by soil treatment (symbol d); settings: application herbicide amount 320 g/ha
Summary of the method: (§4)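 Diluvial soil (sterilized) in boxes; seeds placed spot-wise alongside weed species; ~1.5 cm covering soil. Greenhouse, 25–30° C.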

beet = experiment: Test Example 5: effect on crop by foliage application, plastic box (symbol f); settings: 320 g/ha, 3 weeks after application
Summary of the method: as §2

corn [4] = experiment: Test Example 5: effect on crop by foliage application, plastic box (symbol c); settings: 320 g/ha, 3 weeks after application
Summary of the method: as §2

Leptochloa chinensis = experiment: Test Example 3: herbicidal effect by foliage application, Wagner pot (symbol D); settings: application herbicide amount 320 g/ha
Summary of the method: as §1

[5] = test system: Echinochloa oryzacola Vasing.; experiment: Test Example 2: herbicidal activity, application during weed generation in submerged conditions (symbol A); settings: Table 23; application herbicide amount 320 g/ha; grade 0-5 by criteria of Test Example 1
Summary of the method: (§5)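 Weeds emerging under flooded conditions were treated with compound formulated as an emulsion and diluted with water to the intended herbicide amount, poured onto the surface of 4 cm standing water. Seeds had been co-sown in alluvial soil; plants grew at 25° C. to 30° C. and were assessed after 3 weeks.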

Scirpus juncoides = experiment: Test Example 2: herbicidal activity, application during weed generation in submerged conditions (symbol B); settings: Table 23; application herbicide amount 320 g/ha; grade 0-5 by criteria of Test Example 1
Summary of the method: as §5

wheat = experiment: Test Example 4: effect on crop by soil treatment (symbol e); settings: application herbicide amount 320 g/ha
Summary of the method: as §4

transplanted rice plant = experiment: Test Example 1: effect on crop, application before weed generation in submerged conditions (symbol a); settings: application herbicide amount 320 g/ha
Summary of the method: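 Rice at 2.5 leaf stage transplanted into submerged soil (4 cm depth) sown with three weed species; herbicide applied before weed emergence.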

[6] = test system: Echinochloa crus-galli var. crus-galli; experiment: Test Example 3: herbicidal effect by foliage application, Wagner pot (symbol H); settings: application herbicide amount 320 g/ha
Summary of the method: as §1

Abutilon theophrasti = experiment: Test Example 4: herbicidal effect by soil treatment (symbol M); settings: application herbicide amount 320 g/ha
Summary of the method: as §3

With CC(=O)CC1CC(O)=C(c2c(C)cc(-c3ccccc3)cc2C)C1=O (stereo not shown) [7-004] the “Herbicidal effect grade, C: Monochoria vaginalis” value (from here on “Herbicidal effect grade, C”) (Monochoria vaginalis) was 0 (Herbicidal ratio of 5% or lower (almost no effect)), the “herbicidal effect on E, grade 0-5” value (Cyperus difformis) was 5 (Herbicidal ratio of 90% or more (almost completely withered)) and the “b: directly sowed rice plant, effect on crop (criteria of Test Example 1)” value (rice plant) was 5 (Herbicidal ratio of 90% or more (almost completely withered)). For the same compound, the “Herbicidal effect grade, P: Stellaria media” value (Stellaria media) was 0 (Herbicidal ratio of 5% or lower (almost no effect)), the “d: soybean, effect on crop (criteria of Test Example 1)” value (soybean [1]) was 4 (Herbicidal ratio of 70% or higher and lower than 90%) and the “Effect on crop grade, c: corn” value (corn [2]) was 4 (Herbicidal ratio of 70% or higher and lower than 90%). For the same compound, the “Effect on crop grade, d: soybean” value (soybean [3]) was 0 (Herbicidal ratio of 5% or lower (almost no effect)), the “f: beet, effect on crop (criteria of Test Example 1)” value (beet) was 0 (Herbicidal ratio of 5% or lower (almost no effect)) and the “c: corn, effect on crop (criteria of Test Example 1)” value (corn [4]) was 5 (Herbicidal ratio of 90% or more (almost completely withered)). The “herbicidal effect on D (Leptochloa chinensis), grade 0-5” value (“herbicidal effect on D” below) (Leptochloa chinensis) was 5 (Herbicidal ratio of 90% or more (almost completely withered)), the “Herbicidal effect grade, A: Echinochloa oryzacola Vasing.” value [5] was 4 (Herbicidal ratio of 70% or higher and lower than 90%) and the “Herbicidal effect grade, B: Scirpus juncoides” value (shortened to “Herbicidal effect grade, B”) (Scirpus juncoides) was 0 (Herbicidal ratio of 5% or lower (almost no effect)). The “Effect on crop grade, e: wheat” value (wheat) was 0 (Herbicidal ratio of 5% or lower (almost no effect)), the “Effect grade on crop, a: transplanted rice plant” value (from here on “Effect grade on crop”) (transplanted rice plant) was 5 (Herbicidal ratio of 90% or more (almost completely withered)) and the “herbicidal effect on H (Echinochloa crus-galli var. crus-galli), grade 0-5” value (“herbicidal effect on H” below) [6] was 5 (Herbicidal ratio of 90% or more (almost completely withered)). The “Herbicidal effect grade, M: Abutilon theophrasti” value (Abutilon theophrasti) was 3 (Herbicidal ratio of 40% or higher and lower than 70%).
For CON=C(C)CC1CC(O)=C(c2c(C)cc(Oc3ccccc3)cc2C)C1=O (stereo not shown) [6-052], the “Herbicidal effect grade, C” value (Monochoria vaginalis) was 0 (Herbicidal ratio of 5% or lower (almost no effect)), the “herbicidal effect on E, grade 0-5” value (Cyperus difformis) was 3 (Herbicidal ratio of 40% or higher and lower than 70%) and the “b: directly sowed rice plant, effect on crop grade” value (rice plant) was 5 (Herbicidal ratio of 90% or more (almost completely withered)). For the same compound, the “P: Stellaria media, herbicidal effect grade” value (Stellaria media) was 2 (Herbicidal ratio of 20% or higher and lower than 40%), the “d: soybean, effect on crop grade” value (soybean [1]) was 0 (Herbicidal ratio of 5% or lower (almost no effect)) and the “c: corn, effect on crop grade” value (corn [2]) was 0 (Herbicidal ratio of 5% or lower (almost no effect)). For the same compound, the “d: soybean, effect on crop grade” value (soybean [3]) was 0 (Herbicidal ratio of 5% or lower (almost no effect)), the “f: beet, effect on crop grade” value (beet) was 0 (Herbicidal ratio of 5% or lower (almost no effect)) and the “c: corn, effect on crop grade” value (corn [4]) was 3 (Herbicidal ratio of 40% or higher and lower than 70%). For the same compound, the “herbicidal effect on D” value (Leptochloa chinensis) was 5 (Herbicidal ratio of 90% or more (almost completely withered)), the “Herbicidal effect grade, A: Echinochloa oryzacola Vasing.” value [5] was 3 (Herbicidal ratio of 40% or higher and lower than 70%) and the “Herbicidal effect grade, B” value (Scirpus juncoides) was 0 (Herbicidal ratio of 5% or lower (almost no effect)). For the same compound, the “e: wheat, effect on crop grade” value (wheat) was 0 (Herbicidal ratio of 5% or lower (almost no effect)), the “Effect grade on crop” value (transplanted rice plant) was 3 (Herbicidal ratio of 40% or higher and lower than 70%) and the “herbicidal effect on H” value [6] was 5 (Herbicidal ratio of 90% or more (almost completely withered)). The “M: Abutilon theophrasti, herbicidal effect grade” value (Abutilon theophrasti) was 0 (Herbicidal ratio of 5% or lower (almost no effect)).
CON=C(C)CC1CC(O)=C(c2c(C)cc(C(C)=NOC)cc2C)C1=O (stereo not shown) [6-065] was tested, and the “Herbicidal effect grade, C” value (Monochoria vaginalis) was 3 (Herbicidal ratio of 40% or higher and lower than 70%), the “herbicidal effect on E, grade 0-5” value (Cyperus difformis) was 5 (Herbicidal ratio of 90% or more (almost completely withered)) and the “b: directly sowed rice plant, effect on crop (criteria of Test Example 1)” value (rice plant) was 5 (Herbicidal ratio of 90% or more (almost completely withered)). For the same compound, the “P: Stellaria media, herbicidal effect grade” value (Stellaria media) was 4 (Herbicidal ratio of 70% or higher and lower than 90%), the “d: soybean, effect on crop (criteria of Test Example 1)” value (soybean [1]) was 1 (Herbicidal ratio of 5% or higher and lower than 20%) and the “c: corn, effect on crop grade” value (corn [2]) was 5 (Herbicidal ratio of 90% or more (almost completely withered)). The “d: soybean, effect on crop grade” value (soybean [3]) was 0 (Herbicidal ratio of 5% or lower (almost no effect)), the “f: beet, effect on crop (criteria of Test Example 1)” value (beet) was 3 (Herbicidal ratio of 40% or higher and lower than 70%) and the “c: corn, effect on crop (criteria of Test Example 1)” value (corn [4]) was 5 (Herbicidal ratio of 90% or more (almost completely withered)). For the same compound, the “herbicidal effect on D” value (Leptochloa chinensis) was 5 (Herbicidal ratio of 90% or more (almost completely withered)), the “Herbicidal effect grade, A: Echinochloa oryzacola Vasing.” value [5] was 5 (Herbicidal ratio of 90% or more (almost completely withered)) and the “Herbicidal effect grade, B” value (Scirpus juncoides) was 1 (Herbicidal ratio of 5% or higher and lower than 20%). For the same compound, the “e: wheat, effect on crop grade” value (wheat) was 5 (Herbicidal ratio of 90% or more (almost completely withered)), the “Effect grade on crop” value (transplanted rice plant) was 4 (Herbicidal ratio of 70% or higher and lower than 90%) and the “herbicidal effect on H” value [6] was 5 (Herbicidal ratio of 90% or more (almost completely withered)). The “M: Abutilon theophrasti, herbicidal effect grade” value (Abutilon theophrasti) was 0 (Herbicidal ratio of 5% or lower (almost no effect)).
With CON=C(C)CC1CC(OC(=O)N(C)C)=C(c2c(C)cc(-c3ccc(Cl)cc3)cc2C)C1=O (mixture of isomers) [6-063] the “Herbicidal effect grade, C” value (Monochoria vaginalis) was 3 (Herbicidal ratio of 40% or higher and lower than 70%), the “herbicidal effect on E, grade 0-5” value (Cyperus difformis) was 1 (Herbicidal ratio of 5% or higher and lower than 20%) and the “b: directly sowed rice plant, effect on crop (criteria of Test Example 1)” value (rice plant) was 3 (Herbicidal ratio of 40% or higher and lower than 70%). For the same compound, the “P: Stellaria media, herbicidal effect grade” value (Stellaria media) was 0 (Herbicidal ratio of 5% or lower (almost no effect)), the “d: soybean, effect on crop (criteria of Test Example 1)” value (soybean [1]) was 0 (Herbicidal ratio of 5% or lower (almost no effect)) and the “c: corn, effect on crop grade” value (corn [2]) was 0 (Herbicidal ratio of 5% or lower (almost no effect)). For the same compound, the “d: soybean, effect on crop grade” value (soybean [3]) was 0 (Herbicidal ratio of 5% or lower (almost no effect)), the “f: beet, effect on crop (criteria of Test Example 1)” value (beet) was 0 (Herbicidal ratio of 5% or lower (almost no effect)) and the “c: corn, effect on crop (criteria of Test Example 1)” value (corn [4]) was 5 (Herbicidal ratio of 90% or more (almost completely withered)). The “herbicidal effect on D” value (Leptochloa chinensis) was 5 (Herbicidal ratio of 90% or more (almost completely withered)), the “Herbicidal effect grade, A: Echinochloa oryzacola Vasing.” value [5] was 2 (Herbicidal ratio of 20% or higher and lower than 40%) and the “Herbicidal effect grade, B” value (Scirpus juncoides) was 3 (Herbicidal ratio of 40% or higher and lower than 70%). For the same compound, the “e: wheat, effect on crop grade” value (wheat) was 0 (Herbicidal ratio of 5% or lower (almost no effect)), the “Effect grade on crop” value (transplanted rice plant) was 4 (Herbicidal ratio of 70% or higher and lower than 90%) and the “herbicidal effect on H” value [6] was 4 (Herbicidal ratio of 70% or higher and lower than 90%). For the same compound, the “M: Abutilon theophrasti, herbicidal effect grade” value (Abutilon theophrasti) was 0 (Herbicidal ratio of 5% or lower (almost no effect)).
